Test results from EP0927178B1, “TRICYCLIC COMPOUNDS USEFUL FOR INHIBITION OF G-PROTEIN FUNCTION AND FOR TREATMENT OF PROLIFERATIVE DISEASES” (SCHERING CORPORATION, priority 1996, dated 1998).

Tested on: COS Cell
Test: COS Cell IC50 (Cell-Based Assay)
Details: procedure of WO 95/10516
Protocol: FPT IC50 (inhibition of farnesyl protein transferase, in vitro enzyme assay) and COS Cell IC50 (Cell-Based Assay) were determined following the assay procedures described in WO 95/10516, published April 20, 1995. GGPT IC50 (inhibition of geranylgeranyl protein transferase, in vitro enzyme assay), Cell Mat Assay, and anti-tumor activity (in vivo anti-tumor studies) could be determined by the assay procedures described in WO 95/10516. The disclosure of WO 95/10516 is incorporated herein by reference thereto.

NC(=O)N1CC[C@@H](CC(=O)N2CCC(C3c4ncc(Br)cc4CCc4cc(Cl)cc(Cl)c43)CC2)C1 (stereo partly drawn) [Example 2, 3(S) -[2-(4-(3-bromo-8,10-dichloro-6-11-dihydro-5-H-benzo[5,6]-cyclohepta[1,2-b]pyridin-11-yl)-1-piperidinyl]-2-oxoethyl]-1-pyrrolidinecarboxamide]
IC50: 0.03 µM
